This passage reports EC50 results from patent US9975878B2, “Substituted triazine BMI-1 inhibitors” (PTC Therapeutics, Inc., priority 2013, dated 2018).

Structures are written as SMILES.

The experiment deals with Bmi-1 protein. The experiment in a line: Sandwich ELISA Assay: Bmi-1 protein level in HT-1080 cells treated with test compounds. The format is cell-based. Here is the method:
Cell Seeding and Compound Treatment (Day 1):
HT-1080 cells were seeded at 8000 cells/well (50 μL) in 96-well tissue culture plates. After the cells became adherent (3-4 hours), 2× diluted stocks of test compounds in 50 μL DMEM containing 1% DMSO (final DMSO concentration was 0.5%) were added and the plates were incubated at 37° C. under 5% CO2 for 40-48 hours.
ELISA Plate First Antibody Preparation (Day 2):
The First Antibody (Millipore Mouse, monoclonal to mouse Bmi-1, clone F6, catalog #05-637) diluted to 2 μg/mL in PBS was added (100 μL) to each well of a Nunc MaxiSorp 96-well ELISA plate. The plate was covered with a plate seal and allowed to stand overnight.
Cell Lysate Preparation (Day 3):
Fresh Lysis buffer (1×) was prepared on the day of the assay as follows: 1 mM EDTA, 150 mM NaCl, 0.5% Triton-X 100, 10 mM NaF, 20 mM B-Glycerophosphate, 1 mM DTT (in PBS, pH 7.2-7.4) and HALT protease inhibitor cocktail (1×) (Pierce #78410).
Lysis Buffer (1×, 40 μL) was added to each well and the plate was shaken for 5-10 minutes on an orbital shaker to allow cell lysis, then diluent (1% BSA in PBS in 0.5% NP40) (100 μL) was added to each well.
A standard curve was prepared at the following Bmi-1 concentrations: 8000, 4000, 2000, 1000, 500, 250, 125 and 0 pg/mL. The Bmi-1 Recombinant Protein Standard (Novus Biologicals PCGF4 Recombinant Protein (P01), catalog # H00000648-P01) used to prepare the standard curve was stored at −80° C. On first thaw, the Recombinant Protein Standard was diluted to 10 μg/μL in Blocking Buffer (1% BSA in PBS; BSA: Fisher Scientific Catalog #1600-100). Aliquots were taken and refrozen at −80° C. The aliquots may be kept at 4° C. and reused after first thaw, but only within 1-2 weeks. The Recombinant Protein Standard contains a GST-fusion tag that appears at approximately 70 Kda on Western Blot.
The prepared ELISA plate was washed 3× with Wash Buffer (0.05% Tween-20 in PBS). The final wash was removed from the plate and the plate was blotted dry. Blocking Buffer (300 μL) (1% BSA in PBS) was added to each well. The plate was covered with a plate seal and incubated at room temperature for 1 hour. The blocked plate was washed 3× with Wash Buffer, then the final wash was removed and the plate was blotted dry. The previously prepared samples and standards were added (100 μL/well) and the plate was covered with a plate seal and incubated at 4° C. overnight.
The prepared ELISA plate was removed from incubation and allowed to stand at room temperature for 30 minutes, then washed and blotted dry. The Second Antibody (Cell Signaling Rabbit anti-Bmi-1, Cat# 2830) diluted to 1:600 in Blocking Buffer was added (100 μL) to each well, except as needed for background control wells. The plate was covered with a plate seal and incubated for 1.5 hrs at room temperature.
The ELISA plate was washed and blotted dry as previously described. The Third Antibody (Cell Signaling HRP conjugated anti-rabbit IgG (CellSignaling, Cat#:7074) diluted to 1:300 in Blocking Buffer was added (100 μL) to each well, except as needed for background control wells. The plate was incubated for 1 hr at room temperature.
The plate was washed and blotted dry, then a previously prepared TMB substrate (TMB substrate kit, Pierce catalog #34021) (prepared by mixing kit reagents 1:1) (100 μL) was added per well. The plate was incubated for 20-30 minutes at room temperature in the dark, then Stop Solution (2 M sulfuric acid in water) (50 μL) was added per well. The plates were read at OD450 (experimental) and OD570 (reference).
(ELISA stands for enzyme-linked immunosorbent assay.)
As a reminder, the EC50 is the midpoint of the concentration-response curve. Molecule `Nc1nc(Nc2ccc(OC(F)F)c(F)c2)nc(-n2c(C(F)F)nc3cc(F)c(F)cc32)n1` [Cpd 117, N-[4-(difluoromethoxy)-3-fluorophenyl]-6-[2-(difluoromethyl)-5,6-difluoro-1H-benzimidazol-1-yl]-1,3,5-triazine-2,4-diamine] came in with an EC50 of 100 to 3000 nM.
For the molecule `CCc1nc2c(F)cccc2n1-c1nc(N)nc(Nc2ccc(SC)cc2)n1` [Cpd 227, 6-(2-ethyl-4-fluoro-1H-benzimidazol-1-yl)-N-[4-(methylsulfanyl)phenyl]-1,3,5-triazine-2,4-diamine], the EC50 fell in the range of 1 to 10 nM.
Next, `CCc1nn2ccccc2c1-c1nc(N)nc(Nc2ccc(OC(F)F)cc2)n1` [Cpd 129, N-[4-(difluoromethoxy)phenyl]-6-(2-ethylpyrazolo[1,5-a]pyridin-3-yl)-1,3,5-triazine-2,4-diamine]: 100 to 3000 nM; `Cc1ccc(Nc2nc(N)nc(-n3c(C4CC4)nc4ccc(F)cc43)n2)cc1` [Cpd 177, 6-(2-cyclopropyl-6-fluoro-1H-benzimidazol-1-yl)-N-(4-methylphenyl)-1,3,5-triazine-2,4-diamine]: 1 to 10 nM; `Cc1nc2ccccc2n1-c1nc(N)nc(Nc2ccc3c(c2)OCO3)n1` [Cpd 18, N-(1,3-benzodioxol-5-yl)-6-(2-methyl-1H-benzimidazol-1-yl)-1,3,5-triazine-2,4-diamine]: 1 to 10 nM.
Next, `CCc1nc2ccc(F)cc2n1-c1nc(N)nc(Nc2ccc(OC(F)(F)F)cc2)n1` [Cpd 171, 6-(2-ethyl-6-fluoro-1H-benzimidazol-1-yl)-N-[4-(trifluoromethoxy)phenyl]-1,3,5-triazine-2,4-diamine]: 100 to 3000 nM.
Next, `Nc1nc(Nc2ccc(C(F)(F)F)cc2)nc(-n2c(C3CC3)nc3ccccc32)n1` [Cpd 42, 6-(2-cyclopropyl-1H-benzimidazol-1-yl)-N-[4-(trifluoromethyl)phenyl]-1,3,5-triazine-2,4-diamine]: 10 to 100 nM; `Cc1nc2ccccc2n1-c1nc(N)nc(Nc2ccc(OC(F)F)cc2)n1` [Cpd 4, N-[4-(difluoromethoxy)phenyl]-6-(2-methyl-1H-benzimidazol-1-yl)-1,3,5-triazine-2,4-diamine]: 10 to 100 nM; `Cc1nc2ccc(F)cc2n1-c1cnnc(Nc2ccc(OC(F)F)cc2)n1` [Cpd 136, N-[4-(difluoromethoxy)phenyl]-5-(6-fluoro-2-methyl-1H-benzimidazol-1-yl)-1,2,4-triazin-3-amine]: 10 to 100 nM.
The molecule `Cc1nc2ncc(Cl)cc2n1-c1nc(N)nc(Nc2ccc(OC(F)(F)F)cc2)n1` [Cpd 152, 6-(6-chloro-2-methyl-1H-imidazo[4,5-b]pyridin-1-yl)-N-[4-(trifluoromethoxy)phenyl]-1,3,5-triazine-2,4-diamine] had an EC50 of 100 to 3000 nM.
Next, `CCc1nc2cc(F)ccc2n1-c1nc(N)nc(Nc2ccc(OC)cc2)n1` [Cpd 173, 6-(2-ethyl-5-fluoro-1H-benzimidazol-1-yl)-N-(4-methoxyphenyl)-1,3,5-triazine-2,4-diamine]: 1 to 10 nM; `Cc1nc2cc(Cl)c(Cl)cc2n1-c1nc(N)nc(Nc2ccc(C(F)(F)F)cc2)n1` [Cpd 12, 6-(5,6-dichloro-2-methyl-1H-benzimidazol-1-yl)-N-[4-(trifluoromethyl)phenyl]-1,3,5-triazine-2,4-diamine]: 100 to 3000 nM.
Next, `Cc1nc2ccccc2n1-c1nncc(Nc2ccc(C(F)(F)F)cc2)n1` [Cpd 94, 3-(2-methyl-1H-benzimidazol-1-yl)-N-[4-(trifluoromethyl)phenyl]-1,2,4-triazin-5-amine]: 100 to 3000 nM; `CCc1nc2c(F)cc(F)cc2n1-c1nc(N)nc(Nc2ccc(OC(F)F)cc2)n1` [Cpd 49, N-[4-(difluoromethoxy)phenyl]-6-(2-ethyl-4,6-difluoro-1H-benzimidazol-1-yl)-1,3,5-triazine-2,4-diamine]: 10 to 100 nM; `Cc1nc2ccccc2n1-c1nc(N)nc(Nc2ccc(OC(F)(F)F)cc2)n1` [Cpd 3, 6-(2-methyl-1H-benzimidazol-1-yl)-N-[4-(trifluoromethoxy)phenyl]-1,3,5-triazine-2,4-diamine]: 100 to 3000 nM.
For `CCc1nc2ccc(F)cc2n1-c1nc(N)nc(Nc2ccc(C(F)(F)F)cc2)n1` [Cpd 55, 6-(2-ethyl-6-fluoro-1H-benzimidazol-1-yl)-N-[4-(trifluoromethyl)phenyl]-1,3,5-triazine-2,4-diamine], the EC50 was in the range of 10 to 100 nM.
For the molecule `Cc1nc2cc(F)c(F)cc2n1-c1nc(N)nc(Nc2ccc(Br)cc2)n1` [Cpd 210, N-(4-bromophenyl)-6-(5,6-difluoro-2-methyl-1H-benzimidazol-1-yl)-1,3,5-triazine-2,4-diamine], the EC50 was in the range of 10 to 100 nM.
As for `CCc1nc2ccccc2n1-c1nc(N)nc(Nc2ccc(C(F)(F)F)cc2)n1` [Cpd 30, 6-(2-ethyl-1H-benzimidazol-1-yl)-N-[4-(trifluoromethyl)phenyl]-1,3,5-triazine-2,4-diamine], the concentration giving a half-maximal response (EC50) was in the range of 10 to 100 nM.
In the case of `CCc1nc2c(F)cc(F)cc2n1-c1nc(N)nc(Nc2ccc(Br)cc2)n1` [Cpd 209, N-(4-bromophenyl)-6-(2-ethyl-4,6-difluoro-1H-benzimidazol-1-yl)-1,3,5-triazine-2,4-diamine], the concentration giving a half-maximal response (EC50) lay in the range of 1 to 10 nM.
Next, `CCc1nc2cc(F)ccc2n1-c1nc(N)nc(Nc2ccc(OC(F)F)cc2)n1` [Cpd 59, N-[4-(difluoromethoxy)phenyl]-6-(2-ethyl-5-fluoro-1H-benzimidazol-1-yl)-1,3,5-triazine-2,4-diamine]: 10 to 100 nM; `Cc1nc2c(F)cccc2n1-c1nc(N)nc(Nc2ccc(Cl)cc2)n1` [Cpd 181, N-(4-chlorophenyl)-6-(4-fluoro-2-methyl-1H-benzimidazol-1-yl)-1,3,5-triazine-2,4-diamine]: 100 to 3000 nM; `CCc1nc2c(F)cccc2n1-c1nc(N)nc(Nc2ccc(OC(F)F)c(F)c2)n1` [Cpd 70, N-[4-(difluoromethoxy)-3-fluorophenyl]-6-(2-ethyl-4-fluoro-1H-benzimidazol-1-yl)-1,3,5-triazine-2,4-diamine]: 10 to 100 nM.
Next, `CCCc1nc2ccccc2n1-c1nc(N)nc(Nc2ccc(C(F)(F)F)cc2)n1` [Cpd 127, 6-(2-propyl-1H-benzimidazol-1-yl)-N-[4-(trifluoromethyl)phenyl]-1,3,5-triazine-2,4-diamine]: 100 to 3000 nM; `Nc1nc(Nc2ccc(Cl)cc2)nc(-n2c(C3CC3)nc3cc(F)ccc32)n1` [Cpd 193, N-(4-chlorophenyl)-6-(2-cyclopropyl-5-fluoro-1H-benzimidazol-1-yl)-1,3,5-triazine-2,4-diamine]: 100 to 3000 nM.
Turning to `Nc1nc(Nc2ccc(C(F)(F)F)cc2)nc(-n2c(C3CC3)nc3ccc(F)cc32)n1` [Cpd 62, 6-(2-cyclopropyl-6-fluoro-1H-benzimidazol-1-yl)-N-[4-(trifluoromethyl)phenyl]-1,3,5-triazine-2,4-diamine], the EC50 lay in the range of 10 to 100 nM.
Regarding `Nc1nc(Nc2ccc(OC(F)F)cc2)nc(-n2c(C(F)F)nc3cc(F)c(F)cc32)n1` [Cpd 115, N-[4-(difluoromethoxy)phenyl]-6-[2-(difluoromethyl)-5,6-difluoro-1H-benzimidazol-1-yl]-1,3,5-triazine-2,4-diamine], the half-maximal effective concentration (EC50) fell in the range of 10 to 100 nM.
`CSc1ccc(Nc2nc(N)nc(-n3c(C)nc4ccc(F)cc43)n2)cc1` [Cpd 226, 6-(6-fluoro-2-methyl-1H-benzimidazol-1-yl)-N-[4-(methylsulfanyl)phenyl]-1,3,5-triazine-2,4-diamine] gave an EC50 of 10 to 100 nM.
Regarding `COc1ccc(Nc2nc(N)nc(-n3c(C4CC4)nc4ccccc43)n2)cc1` [Cpd 153, 6-(2-cyclopropyl-1H-benzimidazol-1-yl)-N-(4-methoxyphenyl)-1,3,5-triazine-2,4-diamine], the EC50 lay in the range of 1 to 10 nM.
